Test results: US20250206747A1, “COELENTERAZINE ANALOGUES” (priority 2023, published 2025)
Read-outs that look alike come from different tables or passages of the source.

Columns and labels:
[1] = target: T1, NANOLUC® luciferase (Oplophorus gracilirostris, UniProt Q9GV45, A31E/A60N/A81I/F95D/I117V/K70R/L54V/L99Q/M102K/N193R/P142E/Q151K/Q38R/Q45L/V71I/Y165I); test: Luminescent spectra of NANOLUC luciferase in the presence of coelenterazine analogue (peak emission); assay type: biochemical; conditions: for λ max (nm): peak luminescence emission with NANOLUC luciferase
Procedure: FIGS. 1A-1B show kinetic and spectral properties of coelenterazine analogues. (FIG. 1A) Michaelis-Menten analysis determining the relative luminescence produced by 0.01 nM NANOLUC® luciferase at various concentrations of coelenterazine analogues. […] (FIG. 1B) Luminescent spectra of 0.5 nM NANOLUC® luciferase in the presence of 20 μM coelenterazine analogue.
Experiments were conducted during the development of embodiments herein to test the effect of derivatization on the biochemical properties of novel coelenterazine analogues. Properties tested include the analogues' ability to be utilized by NANOLUC® luciferase, as assessed through the determination of Vmax and KM, as well as the peak wavelength of luminescence emission.

[2] = target: T1, NANOLUC® luciferase; test: Michaelis-Menten analysis of relative luminescence produced by NANOLUC luciferase at various concentrations of coelenterazine analogues; assay type: biochemical; conditions: 0.01 nM NANOLUC luciferase; for Vmax (norm): normalised to furimazine = 1; for Km: read-out: Km

T1 sequence (Q9GV45 other isoform, or with tags, fused parts or gaps with the stated changes): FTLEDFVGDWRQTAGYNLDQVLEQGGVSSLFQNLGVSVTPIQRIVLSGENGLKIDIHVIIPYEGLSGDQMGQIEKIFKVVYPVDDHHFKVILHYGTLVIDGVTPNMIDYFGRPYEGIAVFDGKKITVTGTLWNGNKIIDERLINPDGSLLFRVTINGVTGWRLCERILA

For `O=c1c(Cc2ccco2)nc2c(-c3cnnc(Cl)c3)[nH]c(-c3ccccc3)cn1-2` [Compound 9894, 8-(6-Chloropyridazin-4-yl)-2-(furan-2-ylmethyl)-6-phenylimidazo[1,2-a]pyrazin-3(7H)-one], the “peak emission (λem)” value ([1]; Scheme 1, 0.5 nM NANOLUC luciferase, 20 μM coelenterazine analogue) was 622 nm.

With `O=c1c(Cc2ccco2)nc2c(-c3cnnc(Cl)c3)[nH]c(-c3cccc(F)c3)cn1-2` [Compound 10299] the “λ max (nm)” value ([1]; Table 1) was 622 nm and the “Vmax (norm)” value ([2]; Table 1) was 0.000505.

`O=C1C(Cc2ccco2)N=C2C(c3cncc(Cl)c3)=NC(c3ccccc3)=CN12` (stereo not shown) [Compound 9812, 8-(5-chloropyridin-3-yl)-2-(furan-2-ylmethyl)-6-phenylimidazo[1,2-a]pyrazin-3(7H)-one] was tested, and the “shift of peak emission relative to compound 7314” value ([1]; reacted with NANOLUC luciferase, chloropyridin group in place of phenyl ring of 7314) was “red-shift the peak emission”.

For `O=c1c(Cc2ccco2)nc2c(Cc3ccccc3)[nH]c(-c3ccccc3)cn1-2` [Furimazine, reference compound], the “λ max (nm)” value ([1]; Table 1) was 466 nm, the “λ max (nm)” value ([1]; Table 2) was 462 nm and the “Vmax (norm)” value ([2]; Table 1) was 1. For the same compound, the Km ([2]; Table 1) was 0.23 µM, the “Vmax (norm)” value ([2]; Table 2) was 1 and the Km ([2]; Table 2) was 0.56 µM.

For `COc1cccc(-c2cn3c(=O)c(Cc4ccco4)nc-3c(-c3cnnc(Cl)c3)[nH]2)c1` [Compound 10300], the “Vmax (norm)” value ([2]; Table 1) was 0.000505.

With `O=c1c(Cc2ccco2)nc2c(-c3cnnc(Cl)c3)[nH]c(-c3cccc(F)c3F)cn1-2` [Compound 10427, 8-(6-chloropyridazin-4-yl)-6-(2,3-difluorophenyl)-2-(furan-2-ylmethyl)imidazo[1,2-a]pyrazin-3(7H)-one] the “λ max (nm)” value ([1]; Table 2) was 600 nm and the “Vmax (norm)” value ([2]; Table 2) was 0.0015.
